Data taken from US20240368583A1, “DNA CONSTRUCTS, RECOMBINANT CELLS COMPRISING THEREOF, BACTERIAL PROBES, METHODS FOR THEIR PREPARATION, AND METHOD OF USING THEREOF” (YEDA RESEARCH AND DEVELOPMENT CO. LTD., priority 2019, published 2024).

Tests used:
[1] = test system: E. coli expressing His-OmpC; test: Treatment of the modified bacteria with EDTA; assay type: cell-based; details: 10 mM EDTA, 1 h
Method: Bacterial samples decorated with Compound 100 were incubated with various concentrations of EDTA (0, 5, 10 mM) for 1 h. Cells were then collected (6,000 g, 4 min) and washed twice with […] PBS buffer. Cells were resuspended in 100 μl PBS buffer and added to poly-1-lysine-coated slides for imaging.

[2] = test system: Native bacteria (that lack His-tag); test: Decorating bacteria with the oligonucleotides, fluorescence imaging (native bacteria control); assay type: cell-based, E. coli; details: native bacteria lacking His-OmpC; 500 nM with Ni (II)
Method: (§1) E. coli K-12 strain KRX (Promega) was used for protein expression. Transformed bacteria with the different OmpC constructs (OmpC or His-OmpC) were cultured to saturation in LB medium supplemented with 100 μg/ml of ampicillin at 30° C. 40 μl of the pre-cultured cells were then diluted into 4 ml of fresh LB medium supplemented with ampicillin, and incubated until the OD600 reaches ˜0.6. Protein expression was then induced by the addition of 0.1% Rhamnose and 20 μM isopropyl-b-D-1-thiogalactopyranoside (IPTG) and cultures were allowed to grow at 30° C. for 18 h. Then, the bacterial cells were harvested by centrifugation at 6,000 g for 4 min.
(§2) The bacterial cells (OmpC or His-OmpC) were collected by centrifugation at 6000 g for 4 min. The pellet was washed twice with PBS×1 buffer and resuspended in the same buffer to an OD600 of 0.3. To a 100 μl sample of the bacteria suspension, a preincubated sample of DNA (500 nM) and NiCl2 (2.5 μM) was added, and the cells were incubated at room temperature for 1 h. Then the bacterial sample were washed twice with PBS, resuspended in 100 μl PBS and placed on a glass-bottom dish (P35G-1.5-14-C; MatTek) precoated with poly-1-lysine (Sigma Aldrich) and left to adhere for 1 h. Finally, the wells were washed vigorously with PBS three times and imaged using an Olympus IX51 fluorescent microscope. The samples were imaged using 60× or 100× objective lenses.

[3] = test system: E. coli expressing His-OmpC; test: Decorating bacteria with the oligonucleotides, fluorescence imaging; assay type: cell-based
Method: as §1
as §2, with “To a 100 μl sample of the bacteria suspension, a preincubated sample of DNA (500 nM) and NiCl2 (2.5 μM) was added, and the cells were incubated at room temperature for 1 h.” left out

LNCaP cells = test: Fluorescence imaging of bacteria-cell interaction, LNCaP cells; assay type: cell-based, human; details: bacteria linked to duplex with Compound 105; 20 min, washed
Method: (§3) Cells (15,000 cells/well) were seeded onto glass bottom culture dishes (MatTek) and allowed to adhere overnight. MDA-MB-435 cells were seeded in MEM medium supplemented with 5% charcoal dextran-stripped calf serum, 1% non-essential amino acids, 1% L-glutamine, and 1% penicillin/streptomycin. KB cells were plated in folate-depleted RPMI supplemented with 10% FBS and 1% penicillin/streptomycin while LNCaP were maintained in RPMI, 10% FBS, 1% L-glutamine, and 1% penicillin/streptomycin. Following day, medium was removed, rinsed thrice with PBS and then the cells were incubated with B-probes 1-4 (prepared by incubating His-bacteria with duplexes 1-4 at 500 nM concentration for 1 h at 25° C. followed by washing with PBS buffer) at 37° C., 5% CO2 in incubator for 20 min. Finally, the excess/unbound bacteria were gently washed off with PBS containing Ca^+2 and Mg^+2 (200 μL×3) and the cells were imaged using a fluorescence microscope with 60× objective lens. […]
(§4) MDA-MB-435 cells, LNCaP and KB cells were maintained in their respective media as mentioned in the previous section. […] After 20 minutes, the unbound bacteria were gently washed off with PBS containing Ca^+2 and Mg^+2 (200 μL×3) and the cells were imaged using a fluorescence microscope and a 60× objective lens.

MDA-MB-435 cells = test: Fluorescence imaging of bacteria-cell interaction, MDA-MB-435 cells; assay type: cell-based, human; details: bacteria linked to duplex with Compound 105; 20 min, washed
Method: as §3, §4

[4] = biological target: Alexa 647-modified streptavidin (Streptomyces avidinii, UniProt P22629); test: Bacteria-streptavidin interaction; assay type: cell-based; details: duplex with ODN-1 on His-tagged bacteria; Alexa-SA 500 nM, 1 h
Alexa 647-modified streptavidin, sequence (P22629 25-183): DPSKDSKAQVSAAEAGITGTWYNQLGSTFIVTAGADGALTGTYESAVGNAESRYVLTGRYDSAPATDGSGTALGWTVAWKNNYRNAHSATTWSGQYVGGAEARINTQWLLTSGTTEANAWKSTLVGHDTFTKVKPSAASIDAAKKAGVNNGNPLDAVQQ
Method: His-tagged bacterial cells were decorated with a duplex consisting of ODN-1 and Compound 205 duplex according to a similar procedure described above. For binding with streptavidin, cells were incubated with Alexa-647 streptavidin conjugate (500 nM) in PBS×1 for 1 h, and after washing twice with PBS were imaged by fluorescent microscopy. The fluorescent signal was abolished when bacterial cells were treated with ODN-3 (3 μM) for 1 h. The control experiment was performed similarly using bacteria decorated with a duplex containing ODN-1 and the complementary strand.
Methods: His-tagged E. coli were incubated with an ODN-1 molecule and afterwards with a biotin-ODN-2 molecule (Compound 205). Then, the cells were incubated with an Alexa 647-modified streptavidin (FIG. 5A). To verify specificity, the same experiment was performed with an ODN-2 molecule lacking biotin (FIG. 5A). Cells were then incubated with ODN-3 to detach ODN-2 from the cell membranes.

[5] = Adhesion of modified bacteria to the solid support; details: duplex with ODN-1 on His-tagged bacteria; 15 min; control unmodified bacteria
Method: A solution of (11-mercaptoundecyl)tetra(ethylene glycol)^9 (2 mM in ethanol) were added to the gold coated substrates and incubated for 2 h. After removing the solution, the slides were washed four times with ethanol. Bacteria samples decorated with a duplex consisting of Compound 102 and Compound 207 were washed twice with PBS, resuspended in 100 μl phosphate buffer (pH=3.8), and then incubated on gold surfaces for 15 min. The solution containing bacteria was removed, and the slides were rinsed three times with PBS, and twice with water. Finally, they were imaged using an Olympus IX51 microscope.
Methods: His-tagged bacteria were decorated with a duplex assembled from ODN-1 and HS-ODN-2 (Compound 207), namely, an ODN-2 that is appended with a thiol group. HS is known to have high affinity to gold. In the following step, unmodified His-tagged bacteria and thiol-modified His-tagged bacteria (FIG. 6A) were incubated with a gold substrate that was previously passivated with (11-mercaptoundecyl)tetra(ethylene glycol) to prevent non-specific bacterial adhesion. Gold surfaces were observed after 15 min incubation. Cells were then incubated with ODN-3 to detach Compound 207 from bacteria membranes.

His-tagged bacteria = test: Super-resolution (STORM) microscopy of decorated bacteria; assay type: cell-based, E. coli; details: duplex with ODN-1; transverse cut
Method: Super-resolution images were collected on a Vutara SR200 STORM (Bruker) microscope based on the single-molecule localization biplane technology. His-tagged bacteria was decorated with ODN-1:Compound 201 duplex according to the procedure described in above. The bacteria were imaged using 647 nm excitation laser and 405 nm activation laser in an imaging buffer composed of 5 mM cysteamine, oxygen scavengers (7 μM glucose oxidase and 56 nM catalase) in 50 mM Tris, 10 mM NaCl and 10% glucose at pH 8.0. Images were recorded using a 60×NA 1.2 water immersion objective (Olympus) and Evolve 512 EMCCD camera (Photometrics) with gain set at 50, frame rate at 50 Hz, and maximal power of 647 and 405 nm lasers set at 6 and 0.05 kW/cm^2, respectively. Total number of frames acquired was 8000. Data was analyzed by the Vutara SRX software.
Methods: Due to the small size of bacteria, super resolution (SR) microscopy was used to visualize E. Coli 's membrane with super resolution (SR). This was achieved by combining ODN-1 with a commercially available ODN-2 (Cy5-ODN-2; Compound 201) bearing a Cy5 dye, which is compatible with stochastic optical reconstruction microscopy (STORM).

In the case of “Compound 100: X-ODN-1 with tri-NTA His-tag binder, appended with a Cy5 dye; ODN sequence SEQ ID NO. 1 (GCGGCGAGGCAGC; DNA, backbone and methylation of C not given here; Cy5 dye and tri-NTA His-tag binder attached)”, the “removal from the cell surface by EDTA” value [1] is reported as “completely removed”, the “fluorescent decoration of bacteria” value [2] is reported as “No fluorescence” and the “fluorescent decoration of bacteria” value ([3]; 500 nM in the absence of nickel ions) is reported as “No fluorescence”. The “fluorescent decoration of bacteria” value ([3]; 500 nM with Ni (II)) was “successfully decorated”.

In the case of “Compound 230: alkyne modified FAM-labeled ODN2 lacking the CSP binder; SEQ ID NO. 6 (DNA TAGGATCAGGCAGCTATGACGTGAC; DNA, backbone not given here; FAM label and alkyne modification, further chemistry not fully specified)”, the “fluorescent labeling of LNCaP cells” value (LNCaP cells) is reported as “no labeling was achieved”.

In the case of “Compound 220: alkyne modified Cy5-labeled ODN2 lacking the CSP binder; SEQ ID NO. 6 (DNA TAGGATCAGGCAGCTATGACGTGAC; DNA, backbone not given here; Cy5 label and alkyne modification, further chemistry not fully specified)”, the “fluorescent labeling of MDA-MB-435 cells” value (MDA-MB-435 cells) is reported as “no labeling was achieved”.

In the case of “Compound 205: biotin-ODN-2 molecule; SEQ ID NO. 6 (TAGGATCAGGCAGCTATGACGTGAC; DNA, backbone and methylation of C not given here; biotin attached)”, the “fluorescence of decorated bacteria after incubation with Alexa 647-modified streptavidin” value [4] is reported as “became fluorescent”.

With “Compound 207: ODN-2 that is appended with a thiol group; SEQ ID NO. 6 (TAGGATCAGGCAGCTATGACGTGAC; DNA, backbone and methylation of C not given here; thiol group appended)” the “attachment of thiol-modified bacteria to the gold substrate compared with the control” value [5] was “about 8.5 fold”.

For “Compound 201: commercially available ODN-2 bearing a Cy5 dye; SEQ ID NO. 6 (TAGGATCAGGCAGCTATGACGTGAC; DNA, backbone and methylation of C not given here; Cy5 dye attached, commercially available)”, the “localisation of the label on bacteria (STORM)” value (His-tagged bacteria) was “only the outer membrane of the bacteria is labeled”.
